Tests used:
[1] = system: velvetleaf; test: Test A pre-/postemergence herbicide test; type: in vivo, Abutilon theophrasti
In short: (§1)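 Visual injury scores on a 0–100 scale (100 = complete control) taken about ten days post-treatment in greenhouse against untreated controls; dash means no result. Treatments: preemergence soil spray and postemergence spray to runoff on one- to two-leaf plants 2 to 10 cm tall, surfactant-containing formulation.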

[2] = system: barnyardgrass; test: Test A pre-/postemergence herbicide test; type: in vivo, Echinochloa crus-galli
In short: as §1

[3] = system: barnyardgrass; test: Test B pre-/postemergence herbicide test; type: in vivo, Echinochloa crus-galli; conditions: for Barnyardgrass plant response rating: postemergence
In short: (§2)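 Response was scored visually 13 to 15 days after treatment against untreated greenhouse controls, 0 meaning no effect and 100 complete control. Formulations (solvent mixture plus surfactant) went onto soil after planting, onto foliage of 1- to 4-leaf plants, and onto 2-leaf plants in a flooded paddy set including rice and barnyardgrass.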

[4] = system: pigweed; test: Test B pre-/postemergence herbicide test; type: in vivo, Amaranthus retroflexus; conditions: for Pigweed plant response rating: postemergence
In short: (§3)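 Formulation: non-phytotoxic solvent mix with surfactant. Timing: preemergence on seed and postemergence on 2–18 cm plants, applied concurrently. Readout after 13–15 d greenhouse: visual 0–100 control rating against controls.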

[5] = system: large crabgrass; test: Test A pre-/postemergence herbicide test; type: in vivo, Digitaria sanguinalis
In short: as §1

[6] = system: giant foxtail; test: Test A pre-/postemergence herbicide test; type: in vivo, Setaria faberi
In short: as §1

[7] = system: wheat; test: Test B postemergence herbicide test; type: in vivo, Triticum aestivum; design: key to Wheat plant response rating: 0 = no effect, 100 = complete control; conditions: postemergence
In short: (§4)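 Formulated test chemicals went onto postemergence plants measuring 2 to 18 cm, at one to four leaves. For the paddy assay, species had reached two leaves. Scoring took place 13–15 days later by eye, relative to untreated plants, using 0 for no effect up to 100 for full control.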

[8] = system: Surinam grass; test: Test B pre-/postemergence herbicide test; type: in vivo, Urochloa decumbens; conditions: for Surinam Grass plant response rating: postemergence
In short: as §3

[9] = system: blackgrass; test: Test B postemergence herbicide test; type: in vivo, Alopecurus myosuroides; conditions: postemergence
In short: (§5)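 Visual control ratings, 0–100 versus untreated controls, taken after 13 to 15 days in the greenhouse. Blackgrass received a postemergence spray at the 1- to 4-leaf stage (2–18 cm); ducksalad, umbrella sedge and barnyardgrass were flooded-paddy treated at 2 leaves.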

[10] = system: cocklebur; test: Test B pre-/postemergence herbicide test; type: in vivo, Xanthium strumarium; conditions: for Cocklebur plant response rating: postemergence
In short: as §2

[11] = system: redroot pigweed; test: Test A pre-/postemergence herbicide test; type: in vivo, Amaranthus retroflexus
In short: as §1

[12] = system: wild oat; test: Test B postemergence herbicide test; type: in vivo, Avena fatua; conditions: postemergence
In short: as §4

[13] = system: lambsquarters; test: Test B pre-/postemergence herbicide test; type: in vivo, Chenopodium album; conditions: for Lambsquarters plant response rating: postemergence
In short: as §3

[14] = system: morningglory; test: Test B pre-/postemergence herbicide test; type: in vivo, Ipomoea coccinea; conditions: for Morningglory plant response rating: postemergence
In short: as §2

[15] = system: giant foxtail; test: Test B pre-/postemergence herbicide test; type: in vivo, Setaria faberi; conditions: for Foxtail, Giant plant response rating: postemergence
In short: as §3

[16] = system: large crabgrass; test: Test B pre-/postemergence herbicide test; type: in vivo, Digitaria sanguinalis; conditions: for Crabgrass, Large plant response rating: postemergence
In short: as §3

[17] = system: velvetleaf; test: Test B pre-/postemergence herbicide test; type: in vivo, Abutilon theophrasti; conditions: for Velvetleaf plant response rating: postemergence
In short: as §3

[18] = system: ducksalad; test: Test B flooded paddy test; type: in vivo, Heteranthera limosa; conditions: 1000 g ai/ha, scale 0 to 100 (0 no effect, 100 complete control)
In short: as §5

[19] = system: barnyardgrass; test: Test B flooded paddy test; type: in vivo, Echinochloa crus-galli; conditions: 1000 g ai/ha, scale 0 to 100 (0 no effect, 100 complete control)
In short: as §5

[20] = system: corn; test: Test B pre-/postemergence herbicide test; type: in vivo, Zea mays; conditions: for Corn plant response rating: postemergence
In short: as §3

[21] = system: rice; test: Test B flooded paddy test; type: in vivo, Oryza sativa; conditions: 1000 g ai/ha, scale 0 to 100 (0 no effect, 100 complete control)
In short: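 Scale 0–100: zero equals no visible effect, 100 complete control, judged by eye relative to controls. Timing: 13 to 15 days in greenhouse post-treatment. Growth stage at spraying: two leaves (paddy) or one to four leaves, 2–18 cm (postemergence).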

[22] = system: small flower umbrella sedge; test: Test B flooded paddy test; type: in vivo, Cyperus difformis; conditions: 1000 g ai/ha, scale 0 to 100 (0 no effect, 100 complete control)
In short: as §5

[23] = system: rice; test: Test B pre-/postemergence herbicide test; type: in vivo, Oryza sativa; conditions: 0 = no effect, 100 = complete control, preemergence
In short: as §3

[24] = system: morningglory; test: Test A pre-/postemergence herbicide test; type: in vivo, Ipomoea spp.
In short: as §1

[25] = Postemergence, 500 g ai/ha, 0 to 100 scale, 0 no effect, 100 complete control
[26] = Postemergence, 2000 g ai/ha, 0 to 100 scale, 0 no effect, 100 complete control
[27] = Preemergence, 2000 g ai/ha, visual rating, 0 to 100 scale (0 no effect, 100 complete control)
[28] = preemergence, 500 g ai/ha, visual injury, 0 to 100 scale (0 no effect, 100 complete control)
[29] = 125 g ai/ha, 0 = no effect, 100 = complete control, preemergence
[30] = 125 g ai/ha, visual rating, scale 0 (no effect) to 100 (complete control)
[31] = 500 g ai/ha, visual rating, 0 = no effect, 100 = complete control, preemergence
[32] = 500 g ai/ha, scale 0 to 100, 0 is no effect, 100 is complete control

CCNC(=O)c1cncc(NC(=O)c2cc(C(C)(C)C)nn2CC)n1 [Compound 288]
70: Plant response rating, Barnyardgrass [3, 31] | Pigweed plant response rating [11, 27] | Plant response rating, Rice ([23]; 500 g ai/ha, visual rating)
0: Barnyardgrass plant response rating (0 to 100 scale) [3, 29] | Barnyardgrass plant response rating [3, 30] | Barnyardgrass plant response rating [3, 32] | Pigweed plant response rating (0 to 100 scale) [4, 29] | Crabgrass, Large plant response rating [5, 25] | Crabgrass, Large plant response rating [5, 28] | Foxtail, Giant plant response rating [6, 25] | Surinam Grass plant response rating (0 to 100 scale) [8, 29] | Surinam Grass plant response rating [8, 30] | Plant response rating, Surinam Grass [8, 31] | Surinam Grass plant response rating [8, 32] | Cocklebur plant response rating (0 to 100 scale) [10, 29] | Cocklebur plant response rating [10, 30] | Plant response rating, Cocklebur [10, 31] | Cocklebur plant response rating [10, 32] | Lambsquarters plant response rating (0 to 100 scale) [13, 29] | Lambsquarters plant response rating [13, 30] | Morningglory plant response rating (0 to 100 scale) [14, 29] | Morningglory plant response rating [14, 30] | Plant response rating, Morningglory [14, 31] | Morningglory plant response rating [14, 32] | Foxtail, Giant plant response rating (0 to 100 scale) [15, 29] | Foxtail, Giant plant response rating [15, 30] | Crabgrass, Large plant response rating (0 to 100 scale) [16, 29] | Crabgrass, Large plant response rating [16, 30] | Plant response rating, Crabgrass, Large [16, 31] | Crabgrass, Large plant response rating [16, 32] | Plant response rating, Velvetleaf [17, 31] | Ducksalad plant response rating [18] | Barnyardgrass plant response rating [19] | Corn plant response rating (0 to 100 scale) [20, 29] | Corn plant response rating [20, 30] | Plant response rating, Corn [20, 31] | Corn plant response rating [20, 32] | Rice plant response rating [21] | Rice plant response rating (0 to 100 scale) ([23]; 125 g ai/ha)
90: Plant response rating, Pigweed [4, 31] | Plant response rating, Lambsquarters [13, 31]
5: Barnyardgrass plant response rating [2, 25] | Morningglory plant response rating [24, 28]
30: Wheat plant response rating [7, 32] | Lambsquarters plant response rating [13, 32] | Foxtail, Giant plant response rating [15, 32] | Morningglory plant response rating [24, 27]
20: Velvetleaf plant response rating [1, 25] | Plant response rating, Velvetleaf [1, 26] | Barnyardgrass plant response rating [2, 28] | Pigweed plant response rating [4, 32] | Wheat plant response rating [7, 30] | Blackgrass plant response rating [9, 30] | Blackgrass plant response rating [9, 32] | Pigweed plant response rating [11, 25] | Oat, Wild plant response rating [12, 30] | Velvetleaf plant response rating [17, 32] | Morningglory plant response rating [24, 25] | Plant response rating, Morningglory [24, 26]
25: Pigweed plant response rating [11, 28]
10: Velvetleaf plant response rating [1, 28] | Pigweed plant response rating [4, 30] | Crabgrass, Large plant response rating [5, 27] | Plant response rating, Foxtail, Giant [6, 26] | Plant response rating, Foxtail, Giant [15, 31] | Velvetleaf plant response rating [17, 30]
65: Plant response rating, Barnyardgrass [2, 26]
75: Barnyardgrass plant response rating [2, 27] | Foxtail, Giant plant response rating [6, 27]
40: Velvetleaf plant response rating [1, 27] | Plant response rating, Pigweed [11, 26] | Oat, Wild plant response rating [12, 32]
15: Plant response rating, Crabgrass, Large [5, 26] | Foxtail, Giant plant response rating [6, 28]
60: Sedge, Umbrella plant response rating [22]

— US20060069132A1, “Azolecarboxamide herbicides” (priority 2004, published 2006)
